biological target: Opioid receptor (Mus musculus) (UniProt P42866+P32300+P33534)
Sequence (P32300 whole entry, looked up): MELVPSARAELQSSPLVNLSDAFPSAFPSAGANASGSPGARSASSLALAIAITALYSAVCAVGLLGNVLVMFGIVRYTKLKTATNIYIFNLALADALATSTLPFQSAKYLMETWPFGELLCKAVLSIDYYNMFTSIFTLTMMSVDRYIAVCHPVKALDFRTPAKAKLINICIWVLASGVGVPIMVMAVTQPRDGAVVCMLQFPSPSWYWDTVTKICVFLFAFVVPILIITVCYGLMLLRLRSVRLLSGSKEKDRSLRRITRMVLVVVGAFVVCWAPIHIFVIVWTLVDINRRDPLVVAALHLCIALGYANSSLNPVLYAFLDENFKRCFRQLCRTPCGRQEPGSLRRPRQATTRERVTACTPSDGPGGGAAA
Sequence (P33534 whole entry, looked up): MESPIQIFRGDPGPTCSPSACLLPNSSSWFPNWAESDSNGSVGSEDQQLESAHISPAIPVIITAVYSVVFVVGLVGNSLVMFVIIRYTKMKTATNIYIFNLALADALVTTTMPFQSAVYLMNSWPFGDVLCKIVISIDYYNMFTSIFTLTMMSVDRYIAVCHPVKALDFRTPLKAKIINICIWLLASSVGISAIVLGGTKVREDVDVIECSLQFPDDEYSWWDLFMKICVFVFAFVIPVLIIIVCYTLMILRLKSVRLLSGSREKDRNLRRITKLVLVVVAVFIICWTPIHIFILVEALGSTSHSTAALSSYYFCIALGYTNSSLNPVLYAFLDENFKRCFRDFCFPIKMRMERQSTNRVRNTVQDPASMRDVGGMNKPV
Sequence (P42866 whole entry, looked up): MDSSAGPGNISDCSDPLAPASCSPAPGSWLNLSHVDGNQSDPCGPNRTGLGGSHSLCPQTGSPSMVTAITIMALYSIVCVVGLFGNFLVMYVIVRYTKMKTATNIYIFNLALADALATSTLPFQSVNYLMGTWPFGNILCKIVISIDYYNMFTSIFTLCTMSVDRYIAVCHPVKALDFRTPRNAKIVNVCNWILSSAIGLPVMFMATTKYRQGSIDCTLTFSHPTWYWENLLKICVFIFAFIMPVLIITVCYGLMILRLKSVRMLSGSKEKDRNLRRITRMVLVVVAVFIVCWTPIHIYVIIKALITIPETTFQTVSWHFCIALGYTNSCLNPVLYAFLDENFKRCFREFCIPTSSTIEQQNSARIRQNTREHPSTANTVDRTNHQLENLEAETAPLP
Description: Analgesic Potency was tested against mice

Point of comparison: `C=C1C[C@H](C)[C@H]2[C@H]3Cc4ccc(O)cc4[C@@]2(CCN3CC2CCC2)C1`, Log AP 6.07. Against it:
- CN1CC[C@]23CCCCC2C1Cc1ccc(O)cc13 (some centres undefined) — within 0.2 log units, 5.99
- CC1CC[C@]23CCN(CC4CC4)[C@H](Cc4ccc(O)cc42)C3C1 (some centres undefined) — lower, 5.24
- O=C1CC[C@@H]2[C@H]3Cc4ccc(O)cc4[C@@]2(CCN3CC2CCC2)C1 — within 0.2 log units, 5.92
- C[C@H]1CCC[C@]23CCN(CC4CC4)[C@H](Cc4ccc(O)cc42)C13 (some centres undefined) — lower, 4.81
- COc1ccc2c(c1)[C@]13CCN(CC4CCC4)[C@H](C2)[C@H]1CC(C)C(=O)C3 (some centres undefined) — lower, 4.68
- COc1ccc2c(c1)[C@@]13CCC(C)CC1[C@@H](C2)N(CC1CCC1)CC3 (some centres undefined) — lower, 5.16
- COc1ccc2c3c1O[C@H]1CCCC4[C@@H](C2)N(CC2CCC2)CC[C@@]341 (some centres undefined) — lower, 5.58
- C[C@H]1CC[C@@H]2Oc3c(O)ccc4c3[C@@]23CCN(CC2CCC2)[C@H](C4)C13 (some centres undefined) — higher, 6.41
- CC[C@H]1C(C)CC[C@]23CCN(CC4CCC4)[C@H](Cc4ccc(OC)cc42)C13 (some centres undefined) — lower, 5.04
- C[C@H]1CCC[C@]23CCN(C)[C@H](Cc4ccc(O)cc42)C13 (some centres undefined) — lower, 5.32
- COc1ccc2c(c1)[C@@]13CCCC[C@H]1[C@@H](C2)N(C)CC3 — lower, 5.84
- COc1ccc2c3c1O[C@H]1CC(C)CC4[C@@H](C2)N(C)CC[C@@]341 (some centres undefined) — lower, 5.71
- COc1ccc2c(c1)[C@@]13CCC(C)[C@H](C)C1[C@@H](C2)N(C)CC3 (some centres undefined) — within 0.2 log units, 5.95
- CC[C@H]1CCC[C@]23CCN(C)[C@H](Cc4ccc(OC)cc42)C13 (some centres undefined) — within 0.2 log units, 5.93
- COc1ccc2c(c1)[C@@]13CCC(C)[C@H](C)C1[C@@H](C2)N(CC1CC1)CC3 (some centres undefined) — within 0.2 log units, 6.15
- COc1ccc2c(c1)[C@]13CCN(C)[C@H](C2)[C@@H]1C=CC(=O)C3 — higher, 6.45
- CCC[C@H]1CC[C@@H]2Oc3c(OC)ccc4c3[C@@]23CCN(C)[C@H](C4)C13 (some centres undefined) — lower, 4.87
- CC[C@H]1CC[C@@H]2Oc3c(OC)ccc4c3[C@@]23CCN(CC2CC2)[C@H](C4)C13 (some centres undefined) — lower, 5.18
- CN1CC[C@]23c4c5ccc(O)c4O[C@H]2CCCC3[C@H]1C5 (some centres undefined) — within 0.2 log units, 5.95
- Oc1ccc2c3c1O[C@H]1CCCC4[C@@H](C2)N(CC2CCC2)CC[C@@]341 (some centres undefined) — higher, 6.49
- CC1CC[C@]23CCN(CC4CCC4)[C@H](Cc4ccc(O)cc42)C3[C@H]1C (stereo in doubt; 20) — higher, 6.95
- CC[C@H]1C(C)CC[C@]23CCN(C)[C@H](Cc4ccc(OC)cc42)C13 (some centres undefined) — lower, 5.69
- C[C@H]1CC(=O)C[C@]23CCN(CC4CCC4)[C@H](Cc4ccc(O)cc42)[C@@H]13 — lower, 5.75
- Oc1ccc2c3c1O[C@H]1CCCC4[C@@H](C2)N(CC2CC2)CC[C@@]341 (some centres undefined) — lower, 5.37
- Oc1ccc2c(c1)[C@@]13CCCC[C@H]1[C@@H](C2)N(CC1CCC1)CC3 — higher, 6.45
- COc1ccc2c(c1)[C@@]13CCC(C)CC1[C@@H](C2)N(CC1CC1)CC3 (some centres undefined) — within 0.2 log units, 5.97
- C[C@H]1CCC[C@]23CCN(C)[C@H](Cc4ccc(O)cc42)[C@H]13 — lower, 5.12
- COc1ccc2c(c1)[C@@]13CCC[C@H](C)C1[C@@H](C2)N(CC1CC1)CC3 (some centres undefined) — higher, 6.59
- COc1ccc2c3c1OC1CC[C@H](C)C4[C@@H](C2)N(CC2CC2)CC[C@]314 (some centres undefined) — lower, 5.16
- COc1ccc2c(c1)[C@@]13CCC(C)[C@H](C)C1[C@@H](C2)N(CC1CCC1)CC3 (some centres undefined) — lower, 5.25
- CCC[C@H]1CCC[C@]23CCN(CC4CC4)[C@H](Cc4ccc(OC)cc42)C13 (some centres undefined) — lower, 4.76
- CC1CC[C@]23CCN(CC4CCC4)[C@H](Cc4ccc(O)cc42)C3C1 (some centres undefined) — higher, 6.71
- C[C@H]1CCC2Oc3c(O)ccc4c3[C@@]23CCN(C)[C@H](C4)C13 (some centres undefined) — within 0.2 log units, 6.03
- CC[C@H]1CCC2Oc3c(OC)ccc4c3[C@@]23CCN(C)[C@H](C4)C13 (some centres undefined) — lower, 5.72
- COc1ccc2c(c1)[C@@]13CCCCC1[C@@H](C2)N(CC1CCC1)CC3 (some centres undefined) — within 0.2 log units, 6.09
- COc1ccc2c3c1OC1CC[C@H](C)C4[C@@H](C2)N(C)CC[C@]314 (some centres undefined) — lower, 5.45
- CC[C@H]1CCC[C@]23CCN(CC4CCC4)[C@H](Cc4ccc(OC)cc42)C13 (some centres undefined) — lower, 5.47
- CC[C@H]1C(C)CC[C@]23CCN(CC4CCC4)[C@H](Cc4ccc(O)cc42)C13 (some centres undefined) — lower, 5.82
- COc1ccc2c(c1)[C@@]13CCCCC1[C@@H](C2)N(CC1CC1)CC3 (some centres undefined) — higher, 6.87
- COc1ccc2c(c1)[C@@]13CCC[C@H](C)C1[C@@H](C2)N(CC1CCC1)CC3 (some centres undefined) — within 0.2 log units, 5.99
- COc1ccc2c(c1)[C@]13CCN(C)[C@H](C2)[C@@H]1C=C(C)C(=O)C3 — lower, 5.67
- C[C@H]1CCC[C@]23CCN(CC4CCC4)[C@H](Cc4ccc(O)cc42)C13 (stereo in doubt; 41) — higher, 6.6
- CC1CC[C@]23CCN(CC4CCC4)[C@H](Cc4ccc(O)cc42)C3[C@H]1C (stereo in doubt; 40) — within 0.2 log units, 6.23
- CCC[C@H]1CCC[C@]23CCN(C)[C@H](Cc4ccc(OC)cc42)C13 (some centres undefined) — lower, 4.9
- C[C@H]1CC(=O)C[C@]23CCN(C)[C@H](Cc4ccc(O)cc42)[C@@H]13 — higher, 6.32
- COc1ccc2c(c1)[C@@]13CCC[C@H](C)C1[C@@H](C2)N(C)CC3 (some centres undefined) — lower, 5.87
- Oc1ccc2c(c1)[C@@]13CCCC[C@H]1[C@@H](C2)N(CC1CC1)CC3 — lower, 5.16
- COc1ccc2c3c1O[C@H]1CCCC4[C@@H](C2)N(C)CC[C@@]341 (some centres undefined) — lower, 5.54
- COc1ccc2c3c1O[C@H]1CCCC4[C@@H](C2)N(CC2CC2)CC[C@@]341 (some centres undefined) — within 0.2 log units, 6.2
- COc1ccc2c3c1OC1CC[C@H](C)C4[C@@H](C2)N(CC2CCC2)CC[C@]314 (some centres undefined) — lower, 5.26
- C[C@H]1CCC[C@]23CCN(CC4CCC4)[C@H](Cc4ccc(O)cc42)C13 (stereo in doubt; 46) — higher, 6.41
- CC[C@H]1CCC[C@]23CCN(CC4CC4)[C@H](Cc4ccc(OC)cc42)C13 (some centres undefined) — within 0.2 log units, 5.91
- CC1CC[C@]23CCN(C)[C@H](Cc4ccc(O)cc42)C3C1 (some centres undefined) — lower, 5.56
